Experimental data published in publication PMC5702947, “A Study on Cytotoxic and Apoptotic Potential of a Triterpenoid Saponin (3-O-α-L-Arabinosyl Oleanolic Acid) Isolated from Schumacheria castaneifolia Vahl in Human Non-Small-Cell Lung Cancer (NCI-H292) Cells” (BioMed Research International, 2017).

What was measured:
MRC-5 cells [1] = test: Sulforhodamine B (SRB) cytotoxicity assay in MRC-5 cells; assay type: cell-based; details: Homo sapiens
Protocol: (§1) Sulphorhodamine B (SRB) assay was used to dertmine cytotoxic effects of the compound (3-O-L-AO) in NCI-H292 and MRC-5 cells. Cells (5 × 10^3/well) were seeded in 96-well tissue culture plates and incubated for 24 h. After 24 h incubation, cells were treated with 3-O-L-AO (0.78–25 μg/mL) and incubated for 24, 48, and 72 h. Paclitaxel (0.47–15 μg/mL) was used as the positive control. Cells were washed with PBS for three times and then fixed by adding 50% trichloroacetic acid (TCA) to each well followed by washing five times with tap water. After fixing, cells were stained with 0.4% SRB dye for 20 min followed by washing five times with 1% acetic acid. Tris-base (10 mM) was then added to each well and plates were kept on a plate shaker for 1 h at room temperature. The absorbance was measured using a microplate reader (Synergy HT, USA) at wavelength of 540 nm.

NCI-H292 cells [2] = test: Sulforhodamine B (SRB) cytotoxicity assay in NCI-H292 cells; assay type: cell-based; details: Homo sapiens
Protocol: as §1

[3] = system: reactive oxygen species (ROS); test: Reactive oxygen species (ROS) level, NBT assay in NCI-H292 cells; assay type: cell-based, human; details: NCI-H292 cells, 0.5, 1 and 2 μg/mL (all three doses), 24 h, dose dependant
Protocol: (§2) Evaluation of oxidative stress markers (reactive oxygen species (ROS), glutathione-S-transferase (GST), and glutathione (GSH)) after exposure to 3-O-L-AO in NCI-H292 cells was determined as previously described by us.
NCI-H292 cells (20,000 cells/well) were plated in 96-well cell plates and incubated for 24 h. Following incubation, cells were treated with 3-O-L-AO (0.5, 1, and 2 μg/mL) and incubated for 24 h. Nitro Blue Tetrazolium (NBT) solution (1 mg/mL, 20 μL) was then added to each well and incubated for 1 h at 37°C. Blue formazan formed was then solubalized after adding 100 μL of dimethyl sulfoxide (DMSO) and the absorbance was read at 620 nm.

Staphylococcus aureus = system: Staphylococcus aureus; set-up: method as in earlier work; details: cited from earlier work
survivin gene = test: Quantitative real-time PCR, survivin gene expression in NCI-H292 cells; assay type: cell-based, human; details: 1 and 2 μg/mL (both doses), 24 h, downregulation not significant
Protocol: (§3) NCI-H292 cells (2 × 10^5 cells/mL) grown in T-25 tissue culture flasks were treated with 3-O-L-AO (1 and 2 μg/mL) and incubated for another 24 h. TRIzol reagent was used to extract RNA as described by Ediriweera et al., 2016 [13]. Extracted RNA (2 μg) was incubated with 50 ng of random primers and 13.5 μL of PCR water for 5 min at 70°C. cDNA synthesis was then carried out after mixing with a maxter mix containing 5 μL MMLV (Moloney Murine Leukemia Virus Reverse Transcriptase) reaction buffer, 5 μL 10 mM dNTP mix, 25 units of RNasin, and 200 units of MMLV RT enzyme, following incubation at 37°C for 60 min, in a total volume of 25 μL. Stratagene Mx3000P real-time PCR system (Agilent Technologies, CA, USA) was used to carry out real-time PCR. Primers used have been previously described. For real-time PCR, 2 μL of cDNA was mixed with Master Mix containing 0.5 μL of forward and reverses primers, 12.5 μL SYBR Green Master Mix (Eurogentec, Seraing, Liège, Belgium), and 9.5 μL PCR water. The thermal cycle programme set for real-time PCR include stage 1, 95°C for 10 min and stage two consisting of three steps: denaturation at 95°C for 30 s, annealing at 56°C for 1 min, and extension at 72°C for 30 s and stage 2 was repeated for 40 cycles. […] Gene expression was quantified using the method described by Livak and Schmittgen, 2001 [14].

NCI-H292 cells [4] = test: AO/EB staining, apoptosis related morphology under fluorescence microscopy; assay type: cell-based, human; details: NCI-H292 cells, 2.5, 5 and 10 μg/mL, 24 h
Protocol: NCI-H292 lung cancer cells (2 × 10^4 cells/well) cultured on coverslips were treated with 3-O-L-AO (2.5, 5, and 10 μg/mL) for 24 h. After incubation, cells were washed with phosphate buffer saline (PBS) and fixed with 4% formaldehyde for 15 min. Fixed cells were again washed with PBS and stained with acridine orange/ethidium bromide as previously described by us. Stained cells were observed under a fluorescence microscope (Olympus, BX51TRF, Japan).

MRC-5 cells [5] = test: Cytomorphological changes under phase-contrast microscope, MRC-5 cells; assay type: cell-based, human; details: MRC-5 cells, 1.5, 6.25 and 12.5 μg/mL, 24, 48, 72 h, phase-contrast images
Description: (§4) Morphological changes of lung cancer cells (NCI-H292) and normal fibroblasts (MRC-5) cells after exposure to 3-O-L-AO were captured using inverted phase-contrast microscope (Olympus CKX41, Japan).

Escherichia coli = system: Escherichia coli; set-up: method as in earlier work; details: cited from earlier work
[6] = system: glutathione-S-transferase (GST); test: Glutathione-S-transferase (GST) activity in NCI-H292 cell lysates; assay type: cell-based, human; details: NCI-H292 cells, 0.5, 1 and 2 μg/mL (all three doses), 24 h, p < 0.05 to p < 0.0001
Protocol: as §2
An aliquot of cell lysates prepared for GSH assays was used to analyse GST activity. Glutathione and CDNB (1-chloro-2,4-dinitrobenzene) were served as substrates in this assay. A mixture was prepared by mixing 490 μL of PBS (pH 6.5), 5 μL of CDNB (100 mM), and 5 μL of GSH (100 mM); 180 μL of this mixture was mixed with 20 μL of cell lysate and incubated for 5 min at 37°C. Absorbance was recoreded at 340 nm for 5 min (1-minute time intervals). Quantity of GST catalyzing the oxidation of 1 millimole of 1-chloro-2,4-dinitrobenzene per minute at 37°C was considerd as one unit of GST activity.

caspase 3/7 = test: Caspase-Glo 3/7 activity assay in NCI-H292 cells; assay type: cell-based, human; details: NCI-H292 cells, 0.5, 1 and 2 μg/mL (all three doses), 24 h
Protocol: Caspase 3/7 activity in NCI-H292 cells was measured using the Caspase-Glo 3/7 assay kit according to manufacturer's protocol. Prior to the assay, NCI-H292 cells were treated with three doses of 3-O-L-AO (0.5, 1, and 2 μg/mL) and incubated for 24 h.

glutathione (GSH) = test: Glutathione (GSH) levels in NCI-H292 cells; assay type: cell-based, human; details: NCI-H292 cells, 0.5, 1 and 2 μg/mL (all three doses), 24 h, p < 0.0001
Protocol: as §2
NCI-H292 cells were (1 × 10^5 cells/well) exposed to 3-O-L-AO (0.5, 1, and 2 μg/mL) for 24 h. After incubation, cells were collected by trypsinization. Collected cell pellets were mixed with ice-cold KCl (2 mL) and 0.5 M EDTA (1 mL) and sonicated for […]. Cell lysate was then centrifuged at 10,000 g for 15 min to obtain a clear supernatant and it was kept on ice throughout the experiments. Supernatent (75 μL) was mixed with 75 μL of 5% sulfosalicylic acid, 20 μL of 4% DTNB [5,5-dithiobis-(2-nitrobenzoic acid)], and 30 μL of 0.1 M potassium phosphate buffer (pH 8.0) and incubated for 30 min. Absorbance was then recorded at 412 nm and glutathione levels were calculated as nM/mg of cell lysate protein with the help of a GSH standard curve.

p53 gene = test: Quantitative real-time PCR, p53 gene expression in NCI-H292 cells; assay type: cell-based, human; details: 24 h
Protocol: as §3

NCI-H292 cells [7] = test: Cytomorphological changes under phase-contrast microscope, NCI-H292 cells; assay type: cell-based, human; details: NCI-H292 cells, 1.5, 6.25 and 12.5 μg/mL, 24, 48, 72 h, phase-contrast images
Description: as §4

Bax gene = test: Quantitative real-time PCR, Bax gene expression in NCI-H292 cells; assay type: cell-based, human; details: 1 and 2 μg/mL (both doses), 24 h
Protocol: as §3

SMILES: CC(=O)O[C@H]1C(=O)[C@@]2(C)[C@H]([C@H](OC(=O)c3ccccc3)[C@]3(O)C[C@H](OC(=O)[C@H](O)[C@@H](NC(=O)c4ccccc4)c4ccccc4)C(C)=C1C3(C)C)[C@]1(OC(C)=O)CO[C@@H]1C[C@@H]2O [Paclitaxel, reference compound]
- IC50 (MRC-5 cells [1]; MRC5, 24 h incubation): 1.51 µg/mL
- IC50 (MRC-5 cells [1]; MRC5, 48 h incubation): 0.96 µg/mL
- IC50 (MRC-5 cells [1]; MRC5, 72 h incubation): 0.35 µg/mL
- IC50 (NCI-H292 cells [2]; 24 h incubation): 8.37 µg/mL
- IC50 (NCI-H292 cells [2]; 48 h incubation): 3.28 µg/mL
- IC50 (NCI-H292 cells [2]; 72 h incubation): 1.59 µg/mL

SMILES: CC1(C)CCC2(C(=O)O)CCC3(C)C(=CCC4C5(C)CCC(OC6OCC(O)C(O)C6O)C(C)(C)C5CCC43C)C2C1 [3-O-L-AO, 3-O-α-L-arabinosyl oleanolic acid]
- Reactive oxygen species (ROS) level [3]: significantly (p < 0.05 to p < 0.0001) increased
- Antibacterial effects against Staphylococcus aureus (Staphylococcus aureus): Moderate antibacterial effects
- survivin gene expression (survivin gene): downregulation
- Apoptotic induction (AO/EB staining) (NCI-H292 cells [4]): dose dependent apoptotic induction
- Cytomorphological changes of normal lung fibroblast cells (MRC-5 cells [5]): decreased cell volume and rounding up cells
- IC50 (MRC-5 cells [1]; MRC5, 24 h incubation): 5.4 µg/mL
- IC50 (MRC-5 cells [1]; MRC5, 48 h incubation): 4.59 µg/mL
- IC50 (MRC-5 cells [1]; MRC5, 72 h incubation): 2.83 µg/mL
- Antibacterial effects against Escherichia coli (Escherichia coli): Moderate antibacterial effects
- GST levels (activity) [6]: increase
- Caspase 3/7 activity compared to untreated control (caspase 3/7): Significant (p < 0.0001) increase
- IC50 (NCI-H292 cells [2]; 24 h incubation): 4.33 µg/mL
- IC50 (NCI-H292 cells [2]; 48 h incubation): 2.69 µg/mL
- IC50 (NCI-H292 cells [2]; 72 h incubation): 1.5 µg/mL
- GSH levels (glutathione (GSH)): Significant reduction
- p53 gene expression (p53 gene; 1 μg/mL): upregulation
- p53 gene expression (p53 gene; 2 μg/mL): significant (p < 0.05) upregulation
- Cytomorphological changes of lung cancer cells (NCI-H292 cells [7]): decreased cell volume and rounding up cells
- Bax gene expression (Bax gene): Significant (p < 0.001 and p < 0.0001) upregulation
